The record followed here is patent US10975068B2, “6-aminopyridin-3-yl thiazoles as modulators of RORγT” (Janssen Pharmaceutica NV, priority 2016, dated 2021).

Like-named read-outs stand apart in the source and are kept apart here.

Assay [1] deals with full-length human RORγt (Homo sapiens (Human), UniProt P51449). Kind of assay: RORγt (full-length human) reporter assay, Conditions B or C. The format is cell-based. The note with it: for inhibition at 3 µM: at 3 μM compound concentration; for IC50: read-out: RORγt (FL) Reporter Assay B or C, IC50; for RORγt (FL) Reporter Assay B or C, % inhibition (value marked *): marked *: footnote not given. In a few lines: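 Readout is dual luciferase: firefly (GAL4-driven) normalized to DMSO-only and saturating-reference controls, then to CMV-Renilla. Full-length human RORγt fused to GAL4-DBD was transiently expressed in HEK293T; compound exposure ran overnight (16-20 h) starting 4-6 h after transfection, final FBS 1.3%, DMSO 0.1%.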
Chain of full-length human RORγt (P51449 other isoform, or with tags, fused parts or gaps): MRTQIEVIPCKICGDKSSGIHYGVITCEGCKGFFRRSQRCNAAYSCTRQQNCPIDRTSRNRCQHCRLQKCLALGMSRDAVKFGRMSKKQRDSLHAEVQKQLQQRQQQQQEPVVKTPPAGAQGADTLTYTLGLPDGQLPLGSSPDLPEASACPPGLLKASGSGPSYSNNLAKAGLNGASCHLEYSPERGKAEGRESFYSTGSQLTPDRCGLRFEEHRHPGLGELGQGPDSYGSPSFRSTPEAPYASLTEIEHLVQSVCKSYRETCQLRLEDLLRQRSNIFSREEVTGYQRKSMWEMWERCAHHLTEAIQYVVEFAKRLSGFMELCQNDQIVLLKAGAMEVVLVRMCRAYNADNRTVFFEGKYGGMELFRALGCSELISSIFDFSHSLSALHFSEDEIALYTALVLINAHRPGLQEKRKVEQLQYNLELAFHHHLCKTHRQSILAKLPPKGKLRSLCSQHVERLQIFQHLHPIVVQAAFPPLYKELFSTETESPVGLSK
Background: Reporter assays use an easily measured gene product as a stand-in for the process of interest.

In assay [2] the target is human RORγt ligand binding domain (RORγt LBD) (Homo sapiens (Human), UniProt P51449). Kind of assay: RORγt ThermoFluor® assay (thermal shift binding). The note with it: read-out: ThermoFluor® Assay, Kd. An outline of the steps: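 Binding was inferred from thermal stabilisation (ΔTm) of the E. coli-expressed RORγt LBD (0.065 mg/mL), monitored by 1,8-ANS (60 μM) emission at 500 nm during a 1 °C/min ramp. Buffer was Hepes 100 mM pH 7.0 with NaCl, GSH and Tween-20.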
Chain of human RORγt ligand binding domain (RORγt LBD) (P51449 other isoform, or with tags, fused parts or gaps): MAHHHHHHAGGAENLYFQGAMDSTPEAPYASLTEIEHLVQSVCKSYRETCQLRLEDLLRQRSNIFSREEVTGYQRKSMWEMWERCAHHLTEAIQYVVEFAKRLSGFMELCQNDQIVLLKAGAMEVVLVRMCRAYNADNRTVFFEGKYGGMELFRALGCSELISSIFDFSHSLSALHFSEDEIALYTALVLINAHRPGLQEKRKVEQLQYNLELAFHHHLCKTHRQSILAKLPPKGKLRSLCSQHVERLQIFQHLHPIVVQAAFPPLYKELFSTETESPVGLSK

[3] abbreviates: read-out: RORγt (FL) Reporter Assay B or C, % inhibition.

In the case of `CC[C@H](Nc1cc(C(F)F)c(-c2sc(C(=O)N3CC(S(C)(=O)=O)C3)nc2C(=O)N2CCC[C@@H]2C)cn1)C(F)(F)F` [Example 393, [5-[4-(Difluoromethyl)-6-[[(1S)-1-(trifluoromethyl)propyl]amino]-3-pyridyl]-2-(3-methylsulfonylazetidine-1-carbonyl)thiazol-4-yl]-[(28)-2-methylpyrrolidin-1-yl]methanone], the inhibition – broadly, the relative decrease from the control value, in per cent – at 3 µM in assay [1] (setting [3]) worked out at 118%. In assay [1], the IC50 (usually the midpoint of a concentration-inhibition curve) was 27 nM. For the same molecule, the Kd (usually the equilibrium constant for the complex coming apart) in assay [2] came out at 29 nM.
Turning to `C[C@H]1CC(F)(F)CN1C(=O)c1nc(C(=O)NC2COCC2O)sc1-c1cnc(NC2(C)CCC2)cc1C(F)(F)F` (stereo partly drawn) [Example 182, 4-((S)-4,4-Difluoro-2-methylpyrrolidine-1-carbonyl)-N-(cis-4-hydroxytetrahydrofuran-3-yl)-5-(6-((1-methylcyclobutyl)amino)-4-(trifluoromethyl)pyridine-3-yl)thiazole-2-carboxamide], in assay [1] (Conditions B or C), the “RORγt (FL) Reporter Assay B or C, % inhibition (value marked *)” value (from here on “RORγt … % inhibition (value marked *)”) is 99* % and the IC50 worked out at 8.1 nM. For the same molecule, in assay [2], the Kd was 0.12 nM.
The corresponding values for `C[C@H]1CCCN1C(=O)c1nc(C(=O)NCC(C)(C)O)sc1-c1cnc(NC(C)(C)C2CC2)cc1C(F)(F)F` [Example 56, (S)-5-(6-((2-Cyclopropylpropan-2-yl)amino)-4-(trifluoromethyl)pyridin-3-yl)-N-(2-hydroxy-2-methylpropyl)-4-(2-methylpyrrolidine-1-carbonyl)thiazole-2-carboxamide] are 106* %, 3.6 nM and 0.34 nM.
For `C[C@H](Nc1cc(C(F)F)c(-c2sc(C(=O)N[C@H]3C[C@@H]3O)nc2C(=O)N2CCC[C@@H]2C)cn1)C(F)(F)F` (relative stereo) [Example 223, 5-(4-(Difluoromethyl)-6-(((S)-1,1,1-trifluoropropan-2-yl)amino)pyridin-3-yl)-N-((1S*,2S*)-2-hydroxycyclopropyl)-4-((S)-2-methylpyrrolidine-1-carbonyl)thiazole-2-carboxamide] the same measures were 112* %, 100 nM and 33 nM.
In the case of `C[C@H]1CCCN1C(=O)c1nc(C(=O)N2CC[C@@H](O)C2)sc1-c1cnc(NC(C)(C)C)cc1C(F)(F)F` [Example 349, [5-[6-(tert-Butylamino)-4-(trifluoromethyl)-3-pyridyl]-2-[(3R)-3-hydroxypyrrolidine-1-carbonyl]thiazol-4-yl]-[(2S)-2-methylpyrrolidin-1-yl]methanone], the inhibition at 3 µM in assay [1] (setting [3]) was determined as 105%. The IC50 in assay [1] came out at 63 nM. Besides, the Kd in assay [2] turned out to be 11 nM.
Take `C[C@H](Nc1cc(C(F)(F)F)c(-c2sc(C(=O)N[C@H](C)C(C)(C)O)nc2C(=O)N2CC(F)(F)C[C@@H]2C)cn1)C1CC1` [Example 203, 5-(6-(((S)-1-Cyclopropylethyl)amino)-4-(trifluoromethyl)pyridine-3-yl)-4-((S)-4,4-difluoro-2-methylpyrrolidine-1-carbonyl)-N—((R)-3-hydroxy-3-methylbutan-2-yl)thiazole-2-carboxamide]: in assay [1] (Conditions B or C), the “RORγt … % inhibition (value marked *)” value is 97* % and the IC50 turned out to be 42 nM. Also, the Kd in assay [2] came to 1.5 nM.
Consider `C[C@H]1CCCN1C(=O)c1nc(C(=O)NCC(C)(C)O)sc1-c1cnc(NC2CCCC2)cc1C(F)F` [Example 42, (S)-5-(6-(Cyclopentylamino)-4-(difluoromethyl)pyridin-3-yl)-N-(2-hydroxy-2-methylpropyl)-4-(2-methylpyrrolidine-1-carbonyl)thiazole-2-carboxamide], for which the half-maximal inhibitory concentration (IC50) in assay [1] (Conditions B or C) amounted to 42 nM. Also, the inhibition at 6 µM in assay [1] (read-out: RORγt (FL) Reporter Assay B or C, % inhibition @ 6 μM, Conditions B or C, @ 6 μM) was determined as 111%. Besides, in assay [2], the equilibrium dissociation constant (Kd) was 9.3 nM.
For the molecule `CC[C@H](Nc1cc(C(F)F)c(-c2sc(C(=O)N[C@H]3CC[C@H](O)C3)nc2C(=O)N2CCC[C@@H]2C)cn1)C(F)(F)F` [Example 398, 5-[4-(Difluoromethyl)-6-[[(1S)-1-(trifluoromethyl)propyl]amino]-3-pyridyl]-N-[(1S,3S)-3-hydroxycyclopentyl]-4-[(2S)-2-methylpyrrolidine-1-carbonyl]thiazole-2-carboxamide], in assay [1] (setting [3]), the inhibition at 3 µM is 109%. In addition, the IC50 in assay [1] amounted to 39 nM. Moreover, the Kd in assay [2] was found to be 1.5 nM.
For `CC[C@@H](Nc1cc(C(F)(F)F)c(-c2sc(C(=O)NCC(C)(C)O)nc2C(=O)N2CCC[C@@H]2C)cn1)C(F)(F)F` [Example 282, N-(2-Hydroxy-2-methyl-propyl)-4-[(2S)-2-methylpyrrolidine-1-carbonyl]-5-[4-(trifluoromethyl)-6-[[(1R)-1-(trifluoromethyl)propyl]amino]-3-pyridyl]thiazole-2-carboxamide] the same measures were 109%, 19 nM and 1.4 nM.
Take `C[C@@H](Nc1cc(C(F)(F)F)c(-c2sc(C(=O)NCC(C)(C)O)nc2C(=O)N2CCC[C@@H]2C)cn1)C1CC1` [Example 48, 5-(6-(((R)-1-Cyclopropylethyl)amino)-4-(trifluoromethyl)pyridin-3-yl)-N-(2-hydroxy-2-methylpropyl)-4-((S)-2-methylpyrrolidine-1-carbonyl)thiazole-2-carboxamide]: in assay [1] (Conditions B or C), the “RORγt … % inhibition (value marked *)” value is 111* % and the IC50 amounted to 23 nM. Further, the dissociation constant Kd in assay [2] stood at 11 nM.
Regarding `C[C@H]1CCCN1C(=O)c1nc(C(=O)NCC(C)(C)O)sc1-c1cnc(NC2CCCC2(F)F)cc1C(F)(F)F` (stereo partly drawn) [Example 127, 5-(6-((2,2-Difluorocyclopentyl)amino)-4-(trifluoromethyl)pyridin-3-yl)-N-(2-hydroxy-2-methylpropyl)-4-((S)-2-methylpyrrolidine-1-carbonyl)thiazole-2-carboxamide], in assay [1] (Conditions B or C), the “RORγt … % inhibition (value marked *)” value is recorded as 114* % and the IC50 is 110 nM. In assay [2], the Kd is 6.2 nM.
In the case of `C[C@H](NC(=O)c1nc(C(=O)N2CCC[C@@H]2C)c(-c2cnc(N[C@H](C3CC3)C(F)(F)F)cc2C(F)F)s1)C(C)(C)O` [Example 333, 5-(6-(((R)-1-Cyclopropyl-2,2,2-trifluoroethyl)amino)-4-(difluoromethyl)pyridin-3-yl)-N—((S)-3-hydroxy-3-methylbutan-2-yl)-4-((S)-2-methylpyrrolidine-1-carbonyl)thiazole-2-carboxamide], in assay [1] (setting [3]), the inhibition at 3 µM came to 98%. In addition, the IC50 in assay [1] turned out to be 30 nM. In addition, in assay [2], the dissociation constant (Kd) was found to be 0.78 nM.
The corresponding values for `C[C@H](NC(=O)c1nc(C(=O)N2CCC[C@@H]2C)c(-c2cnc(N[C@@H](C3CC3)C(F)(F)F)cc2C(F)F)s1)C(C)(C)O` [Example 312, 5-(6-(((S)-1-Cyclopropyl-2,2,2-trifluoroethyl)amino)-4-(difluoromethyl)pyridin-3-yl)-N—((S)-3-hydroxy-3-methylbutan-2-yl)-4-((S)-2-methylpyrrolidine-1-carbonyl)thiazole-2-carboxamide] are 106%, 27 nM and 2.2 nM.
As to `C[C@H]1CC(F)(F)CN1C(=O)c1nc(C(=O)NCC(C)(C)O)sc1-c1cnc(NCC2(C(F)(F)F)CC2)cc1C(F)(F)F` [Example 126, (S)-4-(4,4-Difluoro-2-methylpyrrolidine-1-carbonyl)-N-(2-hydroxy-2-methylpropyl)-5-(4-(trifluoromethyl)-6-(((1-(trifluoromethyl)cyclopropyl)methyl)amino)pyridin-3-yl)thiazole-2-carboxamide], in assay [1] (Conditions B or C), the “RORγt … % inhibition (value marked *)” value is 98* % and the IC50 was 69 nM. Besides, in assay [2], the Kd stood at 0.85 nM.
The corresponding values for `CC[C@H](Nc1cc(C(F)F)c(-c2sc(C(=O)N[C@H]3CC[C@H](O)C3)nc2C(=O)N2C3CCC2CC3)cn1)C(F)(F)F` [Example 151] are 104* %, 15 nM and 0.87 nM.
With `C[C@H]1CCCN1C(=O)c1nc(C(=O)N[C@H]2COC[C@@H]2O)sc1-c1cnc(NC(C)(C)C)cc1C(F)F` [Example 401, 5-[6-(tert-Butylamino)-4-(difluoromethyl)-3-pyridyl]-N-[(3S,4R)-4-hydroxytetrahydrofuran-3-yl]-4-[(2S)-2-methylpyrrolidine-1-carbonyl]thiazole-2-carboxamide], the inhibition at 1 µM in assay [1] (at 1 μM compound concentration, read-out: RORγt (FL) Reporter Assay B or C, % inhibition) is 102%. The IC50 in assay [1] stood at 38 nM. Also, in assay [2], the Kd came to 4.3 nM.
In the case of `C[C@H]1CCCN1C(=O)c1nc(C(=O)N2CC3(COC3)C2)sc1-c1cnc(NC(C)(C)C)cc1C(F)(F)F` [Example 368, [5-[6-(tert-Butylamino)-4-(trifluoromethyl)-3-pyridyl]-2-(6-oxa-2-azaspiro[3.3]heptane-2-carbonyl)thiazol-4-yl]-[(2S)-2-methylpyrrolidin-1-yl]methanone], the inhibition at 3 µM in assay [1] (setting [3]) was found to be 110%. For the same molecule, the IC50 in assay [1] came to 7.5 nM. In addition, the Kd in assay [2] is 1.7 nM.
For `C[C@H](Nc1cc(C(F)F)c(-c2sc(C(=O)N[C@@H]3CC[C@H]3O)nc2C(=O)N2CCC[C@@H]2C)cn1)C(F)(F)F` (relative stereo) [Example 387, 5-(4-(Difluoromethyl)-6-(((S)-1,1,1-trifluoropropan-2-yl)amino)pyridin-3-yl)-N-(1R*,2R*)-2-hydroxycyclobutyl)-4-((S)-2-methylpyrrolidine-1-carbonyl)thiazole-2-carboxamide] the same measures were 102%, 130 nM and 9.9 nM.
